# Columns and labels:
# [1] = Test for permeability across MDR1; format: in vitro ADME; settings: dog, MDCK-MDR1
# Description: Test for Permeability Across MDR1
# A sample for test was dissolved in dimethyl sulfoxide (DMSO) or other suitable solvents, to be prepared into 10 mM stock solution. A suitable internal standard (IS) was dissolved in acetonitrile (ACN) or other organic solvents as a stop solution. Specific information would be described in a research report.
# Fenoterol, propranolol, and digoxin acted as low-permeability control, high-permeability control, and P-gp substrate in the present research. The stock solutions of these compounds were prepared with DMSO, stocked at 2-8° C., and valid for use within 3 months.
# In the present project, a Hank's balanced salt buffer containing 10 mM HEPES was used as a transport buffer.
# MDR1-MDCK II cells were cultivated using α-MEM culture media (α-Minimum Essential Media), with a culture condition of 37±1° C., 5% CO2, and saturated relative humidity. Afterwards, the cells were inoculated into a BD Transwell-96-well plate (BD Gentest), with an inoculation density of 2.3×10^5 cells/cm^2, then the cells were placed in a carbon dioxide incubator to be incubated for 4-7 days, and then used for a transport experiment.
# A solution to be used was placed in a 37±1° C. water bath kettle to be pre-incubated for 30 minutes. The donor solution and the receiver solution were respectively added to corresponding sides of wells of cell plate (to an apical side and a basolateral side, 75 μL and 250 μL of samples were added respectively), and experiment of bidirectional transport was started. After the addition of the samples, the cell plate was placed in a 37±1° C., 5% CO2 incubator with saturated relative humidity to be incubated for 150 minutes.
# The samples were all centrifuged at 3220 g for 10 minutes after being shaken in a vortex manner. A suitable volume of a supernatant was transferred to a sample analyzing plate. If analysis was not carried out immediately after the plate was sealed, the plate was stored at 2-8° C. The analysis was carried out through a method of LC/MS/MS.
# The sample for test, fenoterol control, propranolol control, and digoxin were analyzed in a semiquantitative manner, and specific values of analytes to a peak area of the internal standard were taken as concentration of the controls.
# [2] = Death and body weight of tumor-bearing mice (CT26 model); format: in vivo
# Description: Therefore, the dose of the two compounds, compound 360 and compound 117, in the present experiment was set as 100 mg/kg. In order to observe dose-efficacy relevance of 231, a dose of the compound 231 was set as 25, 50, 100, 200 mg/kg in the present experiment. All drugs were administered by gavage, twice a day.
# The day of tumor inoculation was defined as Day 0, and the inoculated animals were grouped randomly on the day of inoculation. One day after the inoculation (Day 1), the administration was started. The experiment had 7 groups in total, with 12 animals in each group. See details in Table 12 for information on animal grouping and administration.
# (3) As for animal weight, body weight of the mouse was weighed each time when the tumor diameter was measured or before the administration, and death of the animals was observed once a day.
# 7.1 Death and Body Weight of Tumor-Bearing Mice
# [3] = target: T1, recombinant human IDO1 enzyme (Homo sapiens, UniProt P14902); test: Test of hIDO1 for enzymatic activity in vitro (NFK Green fluorescence); format: biochemical
# T1 construct: purchased NTRC (Netherlands Translational Research Center) NTRC-hIDO-10K
# T1 sequence (P14902 whole entry): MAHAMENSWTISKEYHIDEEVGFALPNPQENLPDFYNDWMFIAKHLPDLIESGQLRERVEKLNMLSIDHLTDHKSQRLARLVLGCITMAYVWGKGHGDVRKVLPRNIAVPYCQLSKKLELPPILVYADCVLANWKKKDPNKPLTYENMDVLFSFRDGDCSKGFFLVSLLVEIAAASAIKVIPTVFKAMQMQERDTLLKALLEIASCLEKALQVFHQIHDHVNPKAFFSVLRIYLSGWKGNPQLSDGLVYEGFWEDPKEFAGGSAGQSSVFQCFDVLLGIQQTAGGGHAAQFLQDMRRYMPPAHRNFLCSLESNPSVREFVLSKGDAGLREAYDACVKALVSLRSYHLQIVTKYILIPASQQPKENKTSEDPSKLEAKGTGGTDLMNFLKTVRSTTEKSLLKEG
# Description: 1. Test of hIDO1 for Enzymatic Activity In Vitro
# 1.1 Purpose of Experiment:
# Changes in production of NFK, an IDO1 enzymatic metabolite were detected with NFK Green™ fluorescent molecules. With an IC50 value of a compound as an index, an inhibitory effect of the compound on recombinant human IDO1 enzyme was evaluated.
# The compound was diluted with dimethyl sulfoxide (DMSO) to 1 mM, with 10 gradients, each 3-fold dilution, in duplicate. 48 μL of 50 mM phosphate buffer, having pH of 6.5, was transferred by the Bravo automatic liquid processing platform to the compound plate. Then 2 μL of an already diluted compound/DMSO solution was added. After even mixing, 10 μL of the resultant mixture was transferred to the enzymatic reaction plate.
# IDO1 enzyme was diluted to 20 nM in a reaction buffer (50 mM phosphate buffer with pH of 6.5, 0.1% of Tween-20, 2% of glycerol, 20 mM ascorbic acid, 20 μg/ml catalase, and 20 μM methylene blue), 20 μL of the diluted IDO1 enzyme was transferred to the enzymatic reaction plate, and incubated at 23° C. for 30 minutes. 10 μL of 400 μM L-type tryptophan substrate was added to start reaction. The incubation lasted at 23° C. for 90 minutes. 10 μL of NFK Green™ fluorescent dye was added. The resultant mixture was sealed with the plate sealing film. After incubation at 37° C. for 4 hours, an Envision multi-functional plate reader was used for reading (Ex 400 nm/Em 510 nm).
# A reference well to which the IDO1 enzyme was added but no compound was added was set to have an inhibition rate of 0%, and a reference well to which no IDO1 enzyme was added was set to have an inhibition rate of 100%. Data was analyzed with XLFit 5 to calculate an IC50 value of the compound.
compound,measurement,setting,value
"NS(=O)(=O)NCCNc1nonc1C(=NO)Nc1ccc(F)c(Br)c1 [Compound 360, INCB024360, reference compound]","Papp A→B at 150 min, 2 µM",[1],1.61 ×10⁻⁶ cm/s
same,"Papp B→A at 150 min, 2 µM",[1],13.3 ×10⁻⁶ cm/s
same,Rate of Weight Change of D17 vs D1,[2]; 100 mg/kg gavage BID,9.4%
same,body weight compared with the control group when the experiment was ended,[2]; 100 mg/kg gavage BID,no significant difference
same,Body weight of tumor-bearing mice,"[2]; 100 mg/kg gavage BID, D12",24.5 g
same,Body weight of tumor-bearing mice,"[2]; 100 mg/kg gavage BID, D14",25.0 g
same,Body weight of tumor-bearing mice,"[2]; 100 mg/kg gavage BID, D17",25.3 g
same,Body weight of tumor-bearing mice,"[2]; 100 mg/kg gavage BID, Day1",23.2 g
same,Body weight of tumor-bearing mice,"[2]; 100 mg/kg gavage BID, Day3",23.5 g
same,Body weight of tumor-bearing mice,"[2]; 100 mg/kg gavage BID, Day6",23.7 g
same,Body weight of tumor-bearing mice,"[2]; 100 mg/kg gavage BID, Day8",23.5 g
same,Body weight of tumor-bearing mice,"[2]; 100 mg/kg gavage BID, Day10",23.9 g
NS(=O)(=O)NCCOc1nonc1/C(=N/O)Nc1ccc(F)c(Br)c1 [Compound 0015],IC50,[3],115 nM
same,"Papp A→B at 150 min, 2 µM",[1],1.76 ×10⁻⁶ cm/s
same,"Papp B→A at 150 min, 2 µM",[1],13.6 ×10⁻⁶ cm/s
NS(=O)(=O)NCCSc1nonc1/C(=N/O)Nc1ccc(F)c(Br)c1 [Compound 0117],IC50,[3],26.2 nM
same,"Papp A→B at 150 min, 2 µM",[1],3.2 ×10⁻⁶ cm/s
same,"Papp B→A at 150 min, 2 µM",[1],11.3 ×10⁻⁶ cm/s
same,Rate of Weight Change of D17 vs D1,[2]; 100 mg/kg gavage BID,8.5%
same,body weight compared with the control group when the experiment was ended,[2]; 100 mg/kg gavage BID,remarkably decreased weight
same,Body weight of tumor-bearing mice,"[2]; 100 mg/kg gavage BID, D12",23.1 g
same,Body weight of tumor-bearing mice,"[2]; 100 mg/kg gavage BID, D14",23.3 g
same,Body weight of tumor-bearing mice,"[2]; 100 mg/kg gavage BID, D17",24.2 g
same,Body weight of tumor-bearing mice,"[2]; 100 mg/kg gavage BID, Day1",22.3 g
same,Body weight of tumor-bearing mice,"[2]; 100 mg/kg gavage BID, Day3",22.7 g
same,Body weight of tumor-bearing mice,"[2]; 100 mg/kg gavage BID, Day6",22.7 g
same,Body weight of tumor-bearing mice,"[2]; 100 mg/kg gavage BID, Day8",21.8 g
same,Body weight of tumor-bearing mice,"[2]; 100 mg/kg gavage BID, Day10",22.9 g
CC(=O)NCCSc1nonc1/C(=N/O)Nc1ccc(F)c(Br)c1 [Compound 0227],IC50,[3],59.3 nM
same,"Papp A→B at 150 min, 2 µM",[1],12.5 ×10⁻⁶ cm/s
same,"Papp B→A at 150 min, 2 µM",[1],18 ×10⁻⁶ cm/s
NC(=O)NCCSc1nonc1/C(=N/O)Nc1ccc(F)c(Br)c1 [Compound 0231],IC50,[3],42.2 nM
same,"Papp A→B at 150 min, 2 µM",[1],3.79 ×10⁻⁶ cm/s
same,"Papp B→A at 150 min, 2 µM",[1],17.9 ×10⁻⁶ cm/s
same,Rate of Weight Change of D17 vs D1,[2]; 25 mg/kg gavage BID,12.0%
same,body weight compared with the control group when the experiment was ended,[2]; 25 mg/kg gavage BID,no significant difference
same,Body weight of tumor-bearing mice,"[2]; 25 mg/kg gavage BID, D12",23.9 g
same,Body weight of tumor-bearing mice,"[2]; 25 mg/kg gavage BID, D14",24.4 g
same,Body weight of tumor-bearing mice,"[2]; 25 mg/kg gavage BID, D17",25.2 g
same,Body weight of tumor-bearing mice,"[2]; 25 mg/kg gavage BID, Day1",22.5 g
same,Body weight of tumor-bearing mice,"[2]; 25 mg/kg gavage BID, Day3",21.5 g
same,Body weight of tumor-bearing mice,"[2]; 25 mg/kg gavage BID, Day6",23.3 g
same,Body weight of tumor-bearing mice,"[2]; 25 mg/kg gavage BID, Day8",23.0 g
same,Body weight of tumor-bearing mice,"[2]; 25 mg/kg gavage BID, Day10",23.1 g
same,Rate of Weight Change of D17 vs D1,[2]; 50 mg/kg gavage BID,7.5%
same,body weight compared with the control group when the experiment was ended,[2]; 50 mg/kg gavage BID,remarkably decreased weight
same,Body weight of tumor-bearing mice,"[2]; 50 mg/kg gavage BID, D12",23.4 g
same,Body weight of tumor-bearing mice,"[2]; 50 mg/kg gavage BID, D14",24.2 g
same,Body weight of tumor-bearing mice,"[2]; 50 mg/kg gavage BID, D17",24.5 g
same,Body weight of tumor-bearing mice,"[2]; 50 mg/kg gavage BID, Day1",22.8 g
same,Body weight of tumor-bearing mice,"[2]; 50 mg/kg gavage BID, Day3",23.0 g
same,Body weight of tumor-bearing mice,"[2]; 50 mg/kg gavage BID, Day6",22.7 g
same,Body weight of tumor-bearing mice,"[2]; 50 mg/kg gavage BID, Day8",22.6 g
same,Body weight of tumor-bearing mice,"[2]; 50 mg/kg gavage BID, Day10",23.2 g
same,Rate of Weight Change of D17 vs D1,[2]; 100 mg/kg gavage BID,8.4%
same,body weight compared with the control group when the experiment was ended,[2]; 100 mg/kg gavage BID,remarkably decreased weight
same,Body weight of tumor-bearing mice,"[2]; 100 mg/kg gavage BID, D12",23.5 g
same,Body weight of tumor-bearing mice,"[2]; 100 mg/kg gavage BID, D14",24.3 g
same,Body weight of tumor-bearing mice,"[2]; 100 mg/kg gavage BID, D17",24.4 g
same,Body weight of tumor-bearing mice,"[2]; 100 mg/kg gavage BID, Day1",22.5 g
same,Body weight of tumor-bearing mice,"[2]; 100 mg/kg gavage BID, Day3",22.7 g
same,Body weight of tumor-bearing mice,"[2]; 100 mg/kg gavage BID, Day6",22.8 g
same,Body weight of tumor-bearing mice,"[2]; 100 mg/kg gavage BID, Day8",23.2 g
same,Body weight of tumor-bearing mice,"[2]; 100 mg/kg gavage BID, Day10",23.4 g
same,Rate of Weight Change of D17 vs D1,[2]; 200 mg/kg gavage BID,4.4%
same,body weight compared with the control group when the experiment was ended,[2]; 200 mg/kg gavage BID,remarkably decreased weight
same,Body weight of tumor-bearing mice,"[2]; 200 mg/kg gavage BID, D12",22.3 g
same,Body weight of tumor-bearing mice,"[2]; 200 mg/kg gavage BID, D14",22.9 g
same,Body weight of tumor-bearing mice,"[2]; 200 mg/kg gavage BID, D17",23.7 g
same,Body weight of tumor-bearing mice,"[2]; 200 mg/kg gavage BID, Day1",22.7 g
same,Body weight of tumor-bearing mice,"[2]; 200 mg/kg gavage BID, Day3",23.2 g
same,Body weight of tumor-bearing mice,"[2]; 200 mg/kg gavage BID, Day6",20.8 g
same,Body weight of tumor-bearing mice,"[2]; 200 mg/kg gavage BID, Day8",21.9 g
same,Body weight of tumor-bearing mice,"[2]; 200 mg/kg gavage BID, Day10",22.0 g

# Reference: patent US20190169140A1, “IDO1 INHIBITOR AND PREPARATION METHOD AND APPLICATION THEREOF” (SHANDONG LUYE PHARMACEUTICAL CO., LTD., priority 2016, published 2019)
